Test results as given in patent US20060088509A1, “Isolated clk-1 -/- cells from clk-1 heterozygous animals and their use in treating oxidative stress disorders” (priority 2004, published 2006).

Legend:
mclk1 −/− ES cells [1] = experiment: Sensitivity to cell death-inducing agents (trypan blue exclusion); format: cell-based, mouse; details: for Sensitivity of mclk1 −/− ES cells to the cell death-inducing agent: compared with mclk1 +/+ cells, etoposide 20 μM 24 h, anisomysin 2 μM 24 h, staurosporine 0.4 μM 24 h, all-trans retinoic acid 1 μM 96 h, sodium azide 15 μM 24 h
Description: We tested serum starvation (48 hours) and treatment with etoposide (20 μM, 24 hours), anisomysin (2 μM, 24 hours), staurosporine (0.4 μM; 24 hours), all-trans retinoic acid (1 μM, 96 hours) and sodium azide (15 μM, 24 hours).

mclk1 +/+ ES cells [2] = experiment: Cell death assay: resistance to menadione (trypan blue exclusion); format: cell-based, mouse; details: for Resistance to menadione [% viability]: 24 hours in menadione 6 μM, with the supplement named as label; for Resistance to menadione, percent of the wild-type phenotype: number in brackets
Description: (§1) Cells were seeded in six-well dishes at 1×10^5/well in ES cell medium with or without supplements (UQ9: 0.16 μM, sodium pyvurate: 110 mg/L). At different time points, the cells were trypsinized and counted with a hemocytometer. The cells were also analyzed by the trypan blue exclusion method 24 hours after treatment with menadione (6 μM).

mclk1 −/− ES cells [3] = experiment: as above; format: cell-based, mouse; details: for Resistance to menadione [% viability]: 24 hours in menadione 6 μM, with the supplement named as label; for Resistance to menadione, percent of the wild-type phenotype: number in brackets
Description: as §1

Mitochondrial complex II = molecular target: T1, Mitochondrial complex II (Mus musculus, UniProt Q9CQA3+Q9CXV1+Q9CZB0); experiment: Mitochondrial complex II activity of mclk1 −/− ES cells; format: biochemical
T1 construct: mitochondria (containing 50 μg protein) were pre-incubated with reaction buffer; endogenous in cells; host or cells: mitochondria isolated from mouse mclk1 +/+ and mclk1 -/- ES cells
T1 sequence (Q8K2B3 43-664 partner): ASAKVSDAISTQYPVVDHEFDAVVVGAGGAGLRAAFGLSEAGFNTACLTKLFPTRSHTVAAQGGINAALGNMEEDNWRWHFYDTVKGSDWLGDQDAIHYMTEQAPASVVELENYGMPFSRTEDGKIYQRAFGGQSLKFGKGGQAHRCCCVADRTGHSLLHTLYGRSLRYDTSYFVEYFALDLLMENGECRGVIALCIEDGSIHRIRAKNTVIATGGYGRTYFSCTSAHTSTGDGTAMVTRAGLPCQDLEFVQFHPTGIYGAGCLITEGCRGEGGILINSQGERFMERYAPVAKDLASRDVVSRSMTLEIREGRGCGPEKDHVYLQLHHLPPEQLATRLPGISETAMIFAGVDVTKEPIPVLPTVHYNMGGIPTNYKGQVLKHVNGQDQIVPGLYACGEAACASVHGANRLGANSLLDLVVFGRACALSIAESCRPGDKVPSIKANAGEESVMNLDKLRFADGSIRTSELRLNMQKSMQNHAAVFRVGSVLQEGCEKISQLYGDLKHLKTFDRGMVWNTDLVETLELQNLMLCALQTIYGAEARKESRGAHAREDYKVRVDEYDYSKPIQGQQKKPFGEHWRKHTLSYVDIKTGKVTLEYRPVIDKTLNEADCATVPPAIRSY
T1 sequence (Q9CQA3 31-282): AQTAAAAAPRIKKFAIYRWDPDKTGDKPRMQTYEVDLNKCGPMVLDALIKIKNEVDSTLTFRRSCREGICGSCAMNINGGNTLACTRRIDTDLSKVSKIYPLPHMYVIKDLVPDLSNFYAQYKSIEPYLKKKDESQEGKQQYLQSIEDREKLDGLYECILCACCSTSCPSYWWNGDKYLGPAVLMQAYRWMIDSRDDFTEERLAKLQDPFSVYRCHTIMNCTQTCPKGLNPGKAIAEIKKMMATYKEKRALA
T1 sequence (Q9CZB0 30-169): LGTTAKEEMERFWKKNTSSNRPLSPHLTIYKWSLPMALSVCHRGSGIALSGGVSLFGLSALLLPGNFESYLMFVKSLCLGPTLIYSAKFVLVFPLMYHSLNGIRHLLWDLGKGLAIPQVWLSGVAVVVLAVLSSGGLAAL
T1 sequence (Q9CXV1 57-159): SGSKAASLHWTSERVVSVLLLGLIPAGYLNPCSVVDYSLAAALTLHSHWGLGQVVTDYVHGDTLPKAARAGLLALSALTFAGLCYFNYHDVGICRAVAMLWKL
Description: Mitochondrial complex II activity was measured as follows: mitochondria (containing 50 μg protein) were pre-incubated with reaction buffer ([…]) for 10 minutes at room temperature. The reaction was started by adding 2 μg/ml Antimycin A, 2 μg/ml Rotenone, 2 mM KCN, 50 μM 2,6-Dichlorophenolindophenol (Sigma) in the presence or absence of 65 μM Q1. The linear decrease in absorbance at 600 nm was recorded (ε=21 mM-1 cm^−1).

mclk1 −/− ES cells [4] = experiment: LIF requirement assay; format: cell-based, mouse; details: number in brackets
Description: (§2) ES cells were plated at a density of 500 cells/cm^2 in gelatin-coated 6-well plates in ES cell medium containing various concentration of LIF. Three days after inoculation, the proportion of undifferentiated colonies was determined after scoring the morphology of 300 randomly chosen colonies.

mclk1 +/+ ES cells [5] = experiment: Growth rate (cell multiplication); format: cell-based, mouse; details: for Cell multiplication, percent of the wild-type phenotype: number in brackets; for Cell multiplication: number of cells on day 5, day 1 being 1 × 10^5
Description: as §1

mclk1 −/− ES cells [6] = experiment: Growth rate (cell multiplication); format: cell-based, mouse; details: for Cell multiplication, percent of the wild-type phenotype: number in brackets; for Cell multiplication: number of cells on day 5, day 1 being 1 × 10^5
Description: as §1

mclk1 +/+ ES cells [7] = experiment: LIF requirement assay; format: cell-based, mouse; set-up: LIF requirement [% undifferentiated colonies, n = 300]: dose or concentration left out as unconfirmed; details: for LIF requirement [% undifferentiated colonies, n = 300]: day 3, medium with LIF; for LIF requirement, percent of the wild-type phenotype: number in brackets
Description: as §2

mclk1 −/− ES cells [8] = experiment: Oxygen consumption; format: cell-based, mouse; details: for Oxygen consumption, percent of the wild-type phenotype: number in brackets; for Effect on low respiration, slow growth, and LIF resistance phenotypes: sentence also covers growth and LIF assays
mclk1 +/+ ES cells [9] = experiment: Oxygen consumption; format: cell-based, mouse; set-up: Oxygen consumption: scale not given here; details: for Oxygen consumption, percent of the wild-type phenotype: number in brackets
mclk1 +/+ ES cells [10] = experiment: Reactive oxygen species measurement (DCHF-DA fluorescence); format: cell-based, mouse; details: for Basal ROS levels, percent of the wild-type phenotype / Induced ROS levels, percent of the wild-type phenotype: number in brackets; for Induced ROS levels: oxidative stress induced by 0.1 mM FeSO4 and 0.2 mM sodium ascorbate
Description: (§3) For the fluorimetric measurement of ROS, cells were incubated with 10 μM DCHF-DA (Molecular Probes) for 20 min at 37° C. ROS levels were measured fluorimetrically with excitation and emission wavelenghts of 495 nm and 530 nm, respectively. Oxidative stress was induced by incubating the cells loaded with DCHF-DA with 0.1 mM FeSO4 and 0.2 mM sodium ascorbate.

mclk1 −/− ES cells [11] = experiment: as above; format: cell-based, mouse; details: for Basal ROS levels, percent of the wild-type phenotype / Induced ROS levels, percent of the wild-type phenotype: number in brackets; for Induced ROS levels: oxidative stress induced by 0.1 mM FeSO4 and 0.2 mM sodium ascorbate
Description: as §3

[12] = mclk1 −/− ES cells, number in brackets

COc1cc([C@@H]2c3cc4c(cc3[C@@H](O[C@@H]3O[C@@H]5CO[C@@H](C)O[C@H]5[C@H](O)[C@H]3O)[C@H]3COC(=O)[C@H]23)OCO4)cc(OC)c1O [etoposide]
Sensitivity of mclk1 −/− ES cells to the cell death-inducing agent (mclk1 −/− ES cells [1]): resistant

CC1=C(/C=C/C(C)=C/C=C/C(C)=C/C(=O)O)C(C)(C)CCC1 [all-trans retinoic acid]
Sensitivity of mclk1 −/− ES cells to the cell death-inducing agent (mclk1 −/− ES cells [1]): resistant

COC1=C(OC)C(=O)C(C/C=C(\C)CC/C=C(\C)CC/C=C(\C)CC/C=C(\C)CC/C=C(\C)CC/C=C(\C)CC/C=C(\C)CC/C=C(\C)CC/C=C(\C)CCC=C(C)C)=C(C)C1=O [UQ9, ubiquinone]
Resistance to menadione [% viability] (mclk1 +/+ ES cells [2]): 24 ± 2.9 % viability
Resistance to menadione, percent of the wild-type phenotype (mclk1 +/+ ES cells [2]): (105) percent of the wild-type phenotype
Resistance to menadione [% viability] (mclk1 −/− ES cells [3]): 91.3 ± 3.4 % viability
Resistance to menadione, percent of the wild-type phenotype (mclk1 −/− ES cells [3]): (403) percent of the wild-type phenotype
Mitochondrial complex II activity without exogenous Q1 (Mitochondrial complex II; mclk1 −/− ES cells grown with the supplement): 9.1 ± 0.5 nmol/min/mg protein
Mitochondrial complex II activity with exogenous Q1 (Mitochondrial complex II; mclk1 −/− ES cells grown with the supplement, Q1 added in vitro): 39.0 ± 3.5 nmol/min/mg protein
Mitochondrial complex II activity with exogenous Q1, percent of the wild-type phenotype (Mitochondrial complex II; [12]): (64) percent of the wild-type phenotype
Mitochondrial complex II activity without exogenous Q1, percent of the wild-type phenotype (Mitochondrial complex II; [12]): (60) percent of the wild-type phenotype
LIF requirement, percent of the wild-type phenotype (mclk1 −/− ES cells [4]): (446) percent of the wild-type phenotype
Cell multiplication, percent of the wild-type phenotype (mclk1 +/+ ES cells [5]): (100) percent of the wild-type phenotype
Cell multiplication (mclk1 +/+ ES cells [5]): 25.3 ± 5.5 ×10^5 cells
Cell multiplication, percent of the wild-type phenotype (mclk1 −/− ES cells [6]): (69) percent of the wild-type phenotype
Cell multiplication (mclk1 −/− ES cells [6]): 17.5 ± 0.4 ×10^5 cells
LIF requirement [% undifferentiated colonies, n = 300] (mclk1 +/+ ES cells [7]): 39.0 ± 18.5 % undifferentiated colonies
LIF requirement, percent of the wild-type phenotype (mclk1 +/+ ES cells [7]): (90) percent of the wild-type phenotype
Oxygen consumption (mclk1 −/− ES cells [8]): 6.8 ± 0.7 103 μl O2/sec/μg of protein
Oxygen consumption, percent of the wild-type phenotype (mclk1 −/− ES cells [8]): (72) percent of the wild-type phenotype
Effect on low respiration, slow growth, and LIF resistance phenotypes (mclk1 −/− ES cells [8]): ameliorated
Oxygen consumption (mclk1 +/+ ES cells [9]): 8.96 ± 0.8 103 μl O2/sec/μg of protein
Oxygen consumption, percent of the wild-type phenotype (mclk1 +/+ ES cells [9]): (96) percent of the wild-type phenotype
Basal ROS levels (mclk1 +/+ ES cells [10]): 3.8 ± 0.2 Fluorescence Unit × 100/μg pro
Basal ROS levels, percent of the wild-type phenotype (mclk1 +/+ ES cells [10]): (94) percent of the wild-type phenotype
Induced ROS levels, percent of the wild-type phenotype (mclk1 +/+ ES cells [10]): (100) percent of the wild-type phenotype
Induced ROS levels (mclk1 +/+ ES cells [10]): 11.5 ± 0.5 Fluorescence Unit × 100/μg Pro
Basal ROS levels (mclk1 −/− ES cells [11]): 2.4 ± 0.3 Fluorescence Unit × 100/μg pro
Basal ROS levels, percent of the wild-type phenotype (mclk1 −/− ES cells [11]): (59) percent of the wild-type phenotype
Induced ROS levels, percent of the wild-type phenotype (mclk1 −/− ES cells [11]): (57) percent of the wild-type phenotype
Induced ROS levels (mclk1 −/− ES cells [11]): 6.7 ± 1.2 Fluorescence Unit × 100/μg Pro

CC1=CC(=O)c2ccccc2C1=O [menadione]
Sensitivity of mclk1 −/− ES cells to the cell death-inducing agent (mclk1 −/− ES cells [1]): resistance
Resistance to menadione [% viability] (mclk1 +/+ ES cells [2]): 22.7 ± 5.4 % viability
Resistance to menadione, percent of the wild-type phenotype (mclk1 +/+ ES cells [2]): (100) percent of the wild-type phenotype
Resistance to menadione [% viability] (mclk1 −/− ES cells [3]): 68.4 ± 5.4 % viability
Resistance to menadione, percent of the wild-type phenotype (mclk1 −/− ES cells [3]): (304) percent of the wild-type phenotype

CN[C@@H]1C[C@H]2O[C@@](C)([C@@H]1OC)n1c3ccccc3c3c4c(c5c6ccccc6n2c5c31)C(=O)NC4 [staurosporine]
Sensitivity of mclk1 −/− ES cells to the cell death-inducing agent (mclk1 −/− ES cells [1]): neither resistant nor hyper-sensitive

COc1ccc(C[C@H]2NC[C@H](O)[C@H]2OC(C)=O)cc1 [anisomycin]
Sensitivity of mclk1 −/− ES cells to the cell death-inducing agent (mclk1 −/− ES cells [1]): resistant

CC(=O)C(=O)[O-].[Na+] [Sodium pyruvate, sodium pyruvate]
Resistance of mclk1 −/− cells to cell death-inducing agents upon treatment with sodium pyruvate (mclk1 −/− ES cells [1]; etoposide, anisomycin, all-trans retinoic acid, serum withdrawal): indistinguishable from that of the mclk1 +/+ cells
Resistance to menadione [% viability] (mclk1 +/+ ES cells [2]): 23 ± 7.5 % viability
Resistance to menadione, percent of the wild-type phenotype (mclk1 +/+ ES cells [2]): (101) percent of the wild-type phenotype
Resistance to menadione [% viability] (mclk1 −/− ES cells [3]): 68.9 ± 6.5 % viability
Resistance to menadione, percent of the wild-type phenotype (mclk1 −/− ES cells [3]): (304) percent of the wild-type phenotype
LIF requirement, percent of the wild-type phenotype (mclk1 −/− ES cells [4]): (418) percent of the wild-type phenotype
Cell multiplication, percent of the wild-type phenotype (mclk1 +/+ ES cells [5]): (99) percent of the wild-type phenotype
Cell multiplication (mclk1 +/+ ES cells [5]): 25.0 ± 4.8 ×10^5 cells
Cell multiplication, percent of the wild-type phenotype (mclk1 −/− ES cells [6]): (75) percent of the wild-type phenotype
Cell multiplication (mclk1 −/− ES cells [6]): 18.9 ± 2.8 ×10^5 cells
LIF requirement [% undifferentiated colonies, n = 300] (mclk1 +/+ ES cells [7]): 39.3 ± 12.7 % undifferentiated colonies
LIF requirement, percent of the wild-type phenotype (mclk1 +/+ ES cells [7]): (90) percent of the wild-type phenotype
Oxygen consumption (mclk1 −/− ES cells [8]): 7.9 ± 0.4 103 μl O2/sec/μg of protein
Oxygen consumption, percent of the wild-type phenotype (mclk1 −/− ES cells [8]): (85) percent of the wild-type phenotype
Effect on low respiration, slow growth, and LIF resistance phenotypes (mclk1 −/− ES cells [8]): ameliorated
Oxygen consumption (mclk1 +/+ ES cells [9]): 9.1 ± 0.4 103 μl O2/sec/μg of protein
Oxygen consumption, percent of the wild-type phenotype (mclk1 +/+ ES cells [9]): (98) percent of the wild-type phenotype
Basal ROS levels (mclk1 +/+ ES cells [10]): 4.1 ± 0.3 Fluorescence Unit × 100/μg pro
Basal ROS levels, percent of the wild-type phenotype (mclk1 +/+ ES cells [10]): (100) percent of the wild-type phenotype
Induced ROS levels, percent of the wild-type phenotype (mclk1 +/+ ES cells [10]): (102) percent of the wild-type phenotype
Induced ROS levels (mclk1 +/+ ES cells [10]): 11.8 ± 1.2 Fluorescence Unit × 100/μg Pro
Basal ROS levels (mclk1 −/− ES cells [11]): 2.3 ± 0.2 Fluorescence Unit × 100/μg pro
Basal ROS levels, percent of the wild-type phenotype (mclk1 −/− ES cells [11]): (57) percent of the wild-type phenotype
Induced ROS levels, percent of the wild-type phenotype (mclk1 −/− ES cells [11]): (70) percent of the wild-type phenotype
Induced ROS levels (mclk1 −/− ES cells [11]): 8.1 ± 1.1 Fluorescence Unit × 100/μg Pro
